Test results from patent publication US20220404374A1, “METHOD FOR DETERMINING WHETHER OR NOT A SUBJECT HAS A PARKINSONIAN CONDITION” (UNIVERSITE DU LUXEMBOURG, priority 2019, published 2022).

Experiments:
[1] = tested on: HiTox strains of yeast expressing human alpha-synuclein; assay: toxicity assays of 2-HP in HiTox strains of yeast expressing human alpha-synuclein (growth phenotyping); type: cell-based
Experimental: Yeast cells were grown in synthetic complement (SC) media containing 6.7 g/L yeast nitrogen base without amino acids, 5 g/L ammonium sulfate supplemented with 2 g/L SC. Media was autoclaved and the carbon source (8% raffinose or galactose) was added to a final concentration of 2%.
Four fresh single colonies of the Hitox strain and its respective control strain were inoculated from SC-2% glucose plates into 5 mL SC-2% raffinose and incubated overnight with shaking (200 rpm) at 30° C. After ≈20 h, overnight cultures were diluted to OD 0.5 and 2 μL of the yeast cultivation was added to 78 μL drug containing media to a final optical density of 0.0125 in a 384-well microplate. 2-HP was diluted in SC-2% raffinose/galactose and tested at different concentrations (1-100 mM). Finally, the plates are measured in a microplate reader (TECAN™ Infinite M200Pro), at an interval of 10 minutes during 72 h at 30° C. Yeast growth phenotyping was performed as previous described (Jung et al. 2015). Final biomass was corrected using the GATHODE software (Jung et al. 2015). The OD600 at 48 h was taken for the quantification.

[2] = tested on: enteric neurons; assay: toxicity of 2-HP in enteric neurons (MTT cell viability assay); type: cell-based
Experimental: Enteric neurons were cultured in differentiation medium, consisting on Neurobasal (Invitrogen, 21103049) supplemented with 1:200 N2 (Invitrogen, 17502048), 1:100 L-Glutamine (Invitrogen, 25030-024), 1:100 B-27 without Vitamin A (Life Technologies, 12587-010), 1:100 Penicillin/Streptomycin (Invitrogen, 15140122), 25 ng/mL GDNF (Peprotech, 450-10) and 100 μM Ascorbic Acid (Sigma, A5960). Cells were cultured for 21 days in a 6-well plate, then detached with Accutase (Sigma, A6964), and replated into a 96-well plate. Cells were maintained under differentiating conditions until day 31, when they were treated with increasing concentrations of 2-hydroxypyridine (Sigma, H56800). Tested concentrations were as follows: 1 μM, 3 μM, 6 μM, 10 μM, 30 μM, 60 μM, 100 μM, 300 μM, 600 μM, 1 mM and 3 mM.
2-hydroxypyridine was reconstituted to 10 mM in the differentiation medium described above.
Cells were treated for 24 h, then cell viability was assessed performing a Tetrazolium (MTT) assay. Thiazolyl Blue tetrazolium Bromide (Sigma, M5655) was reconstituted to a 5 mg/mL solution in differentiation media and filtered. 10 μL of the solution were then added to every well containing 100 μL of media. Plate was incubated for 2 h in a normal incubator (37° C., 5% CO2). […] Cells were disaggregated by pipetting vigorously and absorbance was read at 570 nm, using the microplate Cytation 5M reader (Biotek).

[3] = tested on: IL-1b mRNA expression; assay: IL-1b mRNA expression (qPCR) in murine bone-marrow derived macrophages; type: cell-based; settings: 10 mM 2-HP, murine BMDMs
Experimental: NLRP3 inflammasome activation is thought to play a role in the pathogenesis of neurodegenerative disorders, and increased levels of this inflammasome and of the related cytokine IL-1b have been detected in Parkinson's patients (Guan & Han, 2020). […] Inflammasome activation was evaluated with qPCR for IL-1b expression (normalized to β-actin), considering the fold change relative to 0 mM 2-HP of each time point.

[4] = tested on: wildtype mice; assay: adhesive removal test in mice after 2-HP injection into the brain; type: in vivo; settings: higher 2-HP concentrations injected into the brain, 15 days post-injection, vs PBS
Experimental: The in vivo work testing for effects of 2-HP in a mouse model lead to results from a small-scale 15-day experiment. In this experiment, 2-HP was injected at several concentrations (5, 50 and 100 mM) into the brain of transgenic mice overexpressing human alpha-synuclein, and of wildtype control mice.

[5] = control strain, higher concentration of 2-HP (FIG. 3C)

Oc1ccccn1 [2-HP, 2-hydroxypyridine]
dose at which 2-HP is selectively toxic to transgenic alpha-synuclein expressing yeast ([1]; HiTox yeast expressing human alpha-synuclein vs control strain): 1 mM
lag time of growth curve [1, 5]: prolonged
yield of growth curve [1, 5]: unaffected
toxic dose-response, galactose ([1]; galactose, alpha-synuclein induced (FIG. 3B), HiTox strains vs control strain): A toxic dose-response can be observed in the HiTox strains, but not in the control strain
toxic dose-response, raffinose ([1]; raffinose, alpha-synuclein not induced (FIG. 3A)): A toxic dose-response can be observed
toxicity on enteric neurons at 3 mM [2]: significant changes
LD50 ([2]; enteric neurons, 24 h treatment, MTT): around 3 mM
increase in IL-1b mRNA (fold change relative to 0 mM 2-HP, normalized to β-actin) ([3]; 3 hours): 3.2 fold
increase in IL-1b mRNA (fold change relative to 0 mM 2-HP, normalized to β-actin) ([3]; 24 hours): 1.5 fold
performance in the adhesive removal test (sensorimotor function) [4]: perform worse
